Assay results from ChEMBL document CHEMBL1201862, “PubChem BioAssay data set” (2004).
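Grown in 96-well plates, cells were treated for 48 hours with each compound at five concentrations. Insufficient inhibition: endpoint recorded as highest concentration tested. GI50: concentration for 50% inhibition of growth.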 Calls of active or inactive are those of the source. Rule as the data show it: active = GI50 up to about 1.1 µM and inactive = higher.

How the values were obtained:
Assay in all cases: inhibition of tumour cell growth, NCI panel, 48 h
786-0 = test system: 786-0
A498 = test system: A498
A549 = test system: A549
ACHN = test system: ACHN
CAKI-1 = test system: CAKI-1
CCRF-CEM = test system: CCRF-CEM
DLD-1 = test system: DLD-1
DMS-114 = test system: DMS-114
DMS-273 = test system: DMS-273
EKVX = test system: EKVX
HCC 2998 = test system: HCC 2998
HCT-116 = test system: HCT-116
HL-60 = test system: HL-60
HOP-62 = test system: HOP-62
HOP-92 = test system: HOP-92
HT-29 = test system: HT-29
IGROV-1 = test system: IGROV-1
K562 = test system: K562
KM-20L2 = test system: KM-20L2
KM12 = test system: KM12
LXFL 529 = test system: LXFL 529
M14 = test system: M14
M19-MEL = test system: M19-MEL
MOLT-4 = test system: MOLT-4
Malme-3M = test system: Malme-3M
NCI-H226 = test system: NCI-H226
NCI-H23 = test system: NCI-H23
NCI-H460 = test system: NCI-H460
NCI-H522 = test system: NCI-H522
OVCAR-3 = test system: OVCAR-3
OVCAR-4 = test system: OVCAR-4
OVCAR-5 = test system: OVCAR-5
OVCAR-8 = test system: OVCAR-8
RXF 393 = test system: RXF 393
SF-268 = test system: SF-268
SF-295 = test system: SF-295
SF-539 = test system: SF-539
SK-MEL-28 = test system: SK-MEL-28
SK-MEL-2 = test system: SK-MEL-2
SK-MEL-5 = test system: SK-MEL-5
SK-OV-3 = test system: SK-OV-3
SN12C = test system: SN12C
SNB-19 = test system: SNB-19
SNB-75 = test system: SNB-75
SNB-78 = test system: SNB-78
SR = test system: SR
SW-620 = test system: SW-620
TK-10 = test system: TK-10
U-251 = test system: U-251
UACC-257 = test system: UACC-257
UACC-62 = test system: UACC-62
UO-31 = test system: UO-31
COLO 205 = test system: COLO 205
HCT-15 = test system: HCT-15
HOP-18 = test system: HOP-18
RPMI-8226 = test system: RPMI-8226
DU-145 = test system: DU-145
LOX IMVI = test system: LOX IMVI

In the case of `COC1=CC(=O)OC(/C=C(C)/C=C/C2=C(C)CCCC2(C)C)C1` (centres undefined), the GI50 (786-0) is reported as > 100 µM (inactive), the GI50 (A498) is reported as > 100 µM (inactive) and the GI50 (A549) is reported as > 100 µM (inactive). For the same molecule, the GI50 (ACHN) was > 100 µM (inactive), the GI50 (CAKI-1) was > 100 µM (inactive) and the GI50 (CCRF-CEM) was > 100 µM (inactive). For the same molecule, the GI50 (DLD-1) was > 100 µM (inactive), the GI50 (DMS-114) was > 100 µM (inactive) and the GI50 (DMS-273) was > 100 µM (inactive). The GI50 (EKVX) was > 100 µM (inactive), the GI50 (HCC 2998) was > 100 µM (inactive) and the GI50 (HCT-116) was > 100 µM (inactive). For the same molecule, the GI50 (HL-60) was > 100 µM (inactive), the GI50 (HOP-62) was > 100 µM (inactive) and the GI50 (HOP-92) was > 100 µM (inactive). For the same molecule, the GI50 (HT-29) was > 100 µM (inactive), the GI50 (IGROV-1) was > 100 µM (inactive) and the GI50 (K562) was > 100 µM (inactive). The GI50 (KM-20L2) was 36 µM (inactive), the GI50 (KM12) was > 100 µM (inactive) and the GI50 (LXFL 529) was > 100 µM (inactive). The GI50 (M14) was > 100 µM (inactive), the GI50 (M19-MEL) was > 100 µM (inactive) and the GI50 (MOLT-4) was > 100 µM (inactive). The GI50 (Malme-3M) was > 100 µM (inactive), the GI50 (NCI-H226) was > 100 µM (inactive) and the GI50 (NCI-H23) was > 100 µM (inactive). For the same molecule, the GI50 (NCI-H460) was > 100 µM (inactive), the GI50 (NCI-H522) was > 100 µM (inactive) and the GI50 (OVCAR-3) was > 100 µM (inactive). The GI50 (OVCAR-4) was > 100 µM (inactive), the GI50 (OVCAR-5) was > 100 µM (inactive) and the GI50 (OVCAR-8) was > 100 µM (inactive). For the same molecule, the GI50 (RXF 393) was > 100 µM (inactive), the GI50 (SF-268) was > 100 µM (inactive) and the GI50 (SF-295) was > 100 µM (inactive). For the same molecule, the GI50 (SF-539) was > 100 µM (inactive), the GI50 (SK-MEL-28) was > 100 µM (inactive) and the GI50 (SK-MEL-2) was > 100 µM (inactive). For the same molecule, the GI50 (SK-MEL-5) was > 100 µM (inactive), the GI50 (SK-OV-3) was > 100 µM (inactive) and the GI50 (SN12C) was > 100 µM (inactive). The GI50 (SNB-19) was > 100 µM (inactive), the GI50 (SNB-75) was > 100 µM (inactive) and the GI50 (SNB-78) was > 100 µM (inactive). For the same molecule, the GI50 (SR) was > 100 µM (inactive), the GI50 (SW-620) was > 100 µM (inactive) and the GI50 (TK-10) was > 100 µM (inactive). For the same molecule, the GI50 (U-251) was > 100 µM (inactive), the GI50 (UACC-257) was > 100 µM (inactive) and the GI50 (UACC-62) was > 100 µM (inactive). The GI50 (UO-31) was > 100 µM (inactive).

`COc1ccc(NC(=O)CC(=O)N2N=C(N(CCC#N)c3cccc(C)c3)CC2c2ccccc2)cc1` (centres undefined) was tested, and the GI50 (786-0) was > 100 µM (inactive), the GI50 (A549) was > 100 µM (inactive) and the GI50 (ACHN) was > 100 µM (inactive). For the same molecule, the GI50 (CAKI-1) was > 100 µM (inactive), the GI50 (CCRF-CEM) was > 100 µM (inactive) and the GI50 (COLO 205) was > 100 µM (inactive). For the same molecule, the GI50 (DLD-1) was > 100 µM (inactive), the GI50 (DMS-273) was > 100 µM (inactive) and the GI50 (EKVX) was > 100 µM (inactive). The GI50 (HCC 2998) was > 100 µM (inactive), the GI50 (HCT-116) was > 100 µM (inactive) and the GI50 (HCT-15) was > 100 µM. The GI50 (HL-60) was > 100 µM (inactive), the GI50 (HOP-18) was > 100 µM (inactive) and the GI50 (HOP-62) was > 100 µM (inactive). The GI50 (HOP-92) was > 100 µM (inactive), the GI50 (HT-29) was > 100 µM (inactive) and the GI50 (IGROV-1) was > 100 µM (inactive). For the same molecule, the GI50 (K562) was > 100 µM (inactive), the GI50 (KM-20L2) was > 100 µM (inactive) and the GI50 (KM12) was > 100 µM (inactive). For the same molecule, the GI50 (LXFL 529) was > 100 µM (inactive), the GI50 (M14) was > 100 µM (inactive) and the GI50 (M19-MEL) was > 100 µM (inactive). The GI50 (MOLT-4) was > 100 µM (inactive), the GI50 (Malme-3M) was > 100 µM (inactive) and the GI50 (NCI-H226) was > 100 µM (inactive). For the same molecule, the GI50 (NCI-H23) was > 100 µM (inactive), the GI50 (NCI-H460) was > 100 µM (inactive) and the GI50 (NCI-H522) was > 100 µM (inactive). The GI50 (OVCAR-3) was > 100 µM (inactive), the GI50 (OVCAR-4) was > 100 µM (inactive) and the GI50 (OVCAR-5) was > 100 µM (inactive). The GI50 (OVCAR-8) was > 100 µM (inactive), the GI50 (RPMI-8226) was > 100 µM (inactive) and the GI50 (RXF 393) was > 100 µM (inactive). For the same molecule, the GI50 (SF-268) was > 100 µM (inactive), the GI50 (SF-295) was > 100 µM (inactive) and the GI50 (SF-539) was > 100 µM (inactive). For the same molecule, the GI50 (SK-MEL-28) was > 100 µM (inactive), the GI50 (SK-MEL-2) was > 100 µM (inactive) and the GI50 (SK-MEL-5) was > 100 µM (inactive). The GI50 (SK-OV-3) was > 100 µM (inactive), the GI50 (SN12C) was > 100 µM (inactive) and the GI50 (SNB-19) was > 100 µM (inactive). For the same molecule, the GI50 (SNB-75) was > 100 µM (inactive), the GI50 (SNB-78) was > 100 µM (inactive) and the GI50 (SR) was > 100 µM (inactive). For the same molecule, the GI50 (SW-620) was > 100 µM (inactive), the GI50 (U-251) was > 100 µM (inactive) and the GI50 (UACC-257) was > 100 µM (inactive). The GI50 (UACC-62) was > 100 µM (inactive) and the GI50 (UO-31) was > 100 µM (inactive).

For `C=C=C(Sc1ccccc1)C(C)(C)OC(C)=O`, the GI50 (786-0) was 16.5 µM (inactive), the GI50 (A498) was 19 µM (inactive) and the GI50 (A549) was 23.9 µM (inactive). The GI50 (ACHN) was > 10 µM (inactive), the GI50 (CAKI-1) was 34.9 µM (inactive) and the GI50 (CCRF-CEM) was 20.2 µM (inactive). For the same molecule, the GI50 (COLO 205) was 18.4 µM (inactive), the GI50 (DLD-1) was 16.5 µM (inactive) and the GI50 (DU-145) was 27.2 µM (inactive). The GI50 (HCC 2998) was 20.9 µM (inactive), the GI50 (HCT-116) was 13.9 µM (inactive) and the GI50 (HCT-15) was 20.6 µM. For the same molecule, the GI50 (HL-60) was 26.7 µM (inactive), the GI50 (HOP-18) was 20 µM (inactive) and the GI50 (HOP-92) was 15.8 µM (inactive). The GI50 (HT-29) was 18.7 µM (inactive), the GI50 (IGROV-1) was 17.6 µM (inactive) and the GI50 (K562) was 22.1 µM (inactive). For the same molecule, the GI50 (KM-20L2) was 26.3 µM (inactive), the GI50 (KM12) was 16 µM (inactive) and the GI50 (LOX IMVI) was 16.5 µM (inactive). For the same molecule, the GI50 (LXFL 529) was 18.2 µM (inactive), the GI50 (M14) was 17.4 µM (inactive) and the GI50 (M19-MEL) was 15.8 µM (inactive). The GI50 (MOLT-4) was 34.5 µM (inactive), the GI50 (Malme-3M) was 18.3 µM (inactive) and the GI50 (NCI-H226) was 21.4 µM (inactive). For the same molecule, the GI50 (NCI-H23) was 17.2 µM (inactive), the GI50 (NCI-H460) was 21.1 µM (inactive) and the GI50 (NCI-H522) was 15.6 µM (inactive). For the same molecule, the GI50 (OVCAR-3) was 16.3 µM (inactive), the GI50 (OVCAR-4) was 31.2 µM (inactive) and the GI50 (OVCAR-5) was 20.3 µM (inactive). The GI50 (OVCAR-8) was 20.2 µM (inactive), the GI50 (RPMI-8226) was 30.7 µM (inactive) and the GI50 (RXF 393) was 14.7 µM (inactive). The GI50 (SF-268) was 13.9 µM (inactive), the GI50 (SF-295) was 18.2 µM (inactive) and the GI50 (SF-539) was 16.1 µM (inactive). The GI50 (SK-MEL-28) was 17.1 µM (inactive), the GI50 (SK-MEL-2) was 17.9 µM (inactive) and the GI50 (SK-MEL-5) was 15.8 µM (inactive). The GI50 (SK-OV-3) was 25.1 µM (inactive), the GI50 (SN12C) was 16.2 µM (inactive) and the GI50 (SNB-19) was 18.8 µM (inactive). The GI50 (SNB-75) was 21.2 µM (inactive), the GI50 (SNB-78) was 29.8 µM (inactive) and the GI50 (SR) was 27.9 µM (inactive). For the same molecule, the GI50 (SW-620) was 17.6 µM (inactive), the GI50 (TK-10) was 32.5 µM (inactive) and the GI50 (U-251) was 16.9 µM (inactive). For the same molecule, the GI50 (UACC-257) was 17.2 µM (inactive), the GI50 (UACC-62) was 14.3 µM (inactive) and the GI50 (UO-31) was 14.2 µM (inactive).
